Reference: ChEMBL document CHEMBL1201862, “PubChem BioAssay data set” (2004)
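1) Cells in 96-well plates. 2) Compound, 48 h, 5 concentrations. 3) Linear interpolation between surrounding doses. 4) Unreached endpoint = highest concentration. GI50: concentration for 50% inhibition of growth.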 The source made the active and inactive calls. Rule as the data show it: active = GI50 up to about 1.1 µM and inactive = higher.

Tests used:
Assay in all cases: NCI-60 cell line screen, 48 h
BT-549 = test system: BT-549
DU-145 = test system: DU-145
HCT-116 = test system: HCT-116
HCT-15 = test system: HCT-15
IGROV-1 = test system: IGROV-1
LOX IMVI = test system: LOX IMVI
MOLT-4 = test system: MOLT-4
Malme-3M = test system: Malme-3M
NCI-H226 = test system: NCI-H226
NCI-H23 = test system: NCI-H23
NCI-H460 = test system: NCI-H460
NCI-H522 = test system: NCI-H522
OVCAR-4 = test system: OVCAR-4
OVCAR-8 = test system: OVCAR-8
RPMI-8226 = test system: RPMI-8226
SF-268 = test system: SF-268
SK-MEL-5 = test system: SK-MEL-5
SK-OV-3 = test system: SK-OV-3
K562 = test system: K562
A498 = test system: A498

| SMILES | GI50 (BT-549) | GI50 (DU-145) | GI50 (HCT-116) | GI50 (HCT-15) | GI50 (IGROV-1) | GI50 (LOX IMVI) | GI50 (MOLT-4) | GI50 (Malme-3M) | GI50 (NCI-H226) | GI50 (NCI-H23) | GI50 (NCI-H460) | GI50 (NCI-H522) | GI50 (OVCAR-4) | GI50 (OVCAR-8) | GI50 (RPMI-8226) | GI50 (SF-268) | GI50 (SK-MEL-5) | GI50 (SK-OV-3) | GI50 (K562) | GI50 (A498) |
| --- | --- | --- | --- | --- | --- | --- | --- | --- | --- | --- | --- | --- | --- | --- | --- | --- | --- | --- | --- | --- |
| COc1ccc(-n2sc3ncc([N+](=O)[O-])cc3c2=O)cc1 | > 100 µM (inactive) | > 100 µM (inactive) | > 100 µM (inactive) | > 100 µM | > 100 µM (inactive) | > 100 µM (inactive) | > 100 µM (inactive) | > 100 µM (inactive) | > 100 µM (inactive) | > 100 µM (inactive) | > 100 µM (inactive) | 34.4 µM (inactive) | > 100 µM (inactive) | > 100 µM (inactive) | > 100 µM (inactive) | > 100 µM (inactive) | > 100 µM (inactive) | > 100 µM (inactive) | – | – |
| [O-][S+](Nc1ccccc1)c1ccc(Cl)c(Cl)c1 (stereo not drawn) | 17 µM (inactive) | 69.8 µM (inactive) | 33.1 µM (inactive) | 57.3 µM | 21.5 µM (inactive) | 38.8 µM (inactive) | 23.7 µM (inactive) | 56.6 µM (inactive) | 51.1 µM (inactive) | 54.5 µM (inactive) | 31.3 µM (inactive) | 21.9 µM (inactive) | 47.9 µM (inactive) | 66.4 µM (inactive) | 51.6 µM (inactive) | 26.4 µM (inactive) | 23.4 µM (inactive) | – | 39.9 µM (inactive) | – |
| CC(NC(=O)C(N)CC(=O)O)C(=O)OC12CC3CC(CC(C3)C1)C2 (stereo not drawn) | – | 13.4 µM (inactive) | > 100 µM (inactive) | > 100 µM | > 100 µM (inactive) | > 100 µM (inactive) | > 100 µM (inactive) | – | – | > 100 µM (inactive) | > 100 µM (inactive) | > 100 µM (inactive) | > 100 µM (inactive) | > 100 µM (inactive) | > 100 µM (inactive) | > 100 µM (inactive) | > 100 µM (inactive) | > 100 µM (inactive) | > 100 µM (inactive) | – |
| COC1=C[C@]2(CCC(=O)O2)[C@@H]2Cc3ccccc3[C@H](O)[C@@H]2C1=O | 49.3 µM (inactive) | – | 30.5 µM (inactive) | 41.1 µM | 82.6 µM (inactive) | 28.7 µM (inactive) | 17.9 µM (inactive) | 24.5 µM (inactive) | 86.5 µM (inactive) | 40.3 µM (inactive) | 85.9 µM (inactive) | 21.7 µM (inactive) | 43.2 µM (inactive) | 38 µM (inactive) | 18.1 µM (inactive) | 68.9 µM (inactive) | 17.5 µM (inactive) | > 100 µM (inactive) | 38.4 µM (inactive) | > 100 µM (inactive) |
| N#Cc1ccc(-c2nc3cc(Cl)ccc3[nH]2)cc1 | 68.2 µM (inactive) | – | – | 39.9 µM | > 100 µM (inactive) | – | 23.1 µM (inactive) | – | 99.5 µM (inactive) | – | – | 32.4 µM (inactive) | – | 42.8 µM (inactive) | > 100 µM (inactive) | – | 37.8 µM (inactive) | > 100 µM (inactive) | 50.2 µM (inactive) | – |
| CCOC(=O)c1c(N)sc2c1C(C(=O)OCC)CCCC2 (stereo not drawn) | > 100 µM (inactive) | – | 43.1 µM (inactive) | 67.3 µM | > 100 µM (inactive) | – | 29.6 µM (inactive) | > 100 µM (inactive) | > 100 µM (inactive) | 62.1 µM (inactive) | 35.2 µM (inactive) | – | – | 89.3 µM (inactive) | 46.2 µM (inactive) | – | 75.2 µM (inactive) | – | 52.8 µM (inactive) | 20.2 µM (inactive) |
| Cc1cc(C)c2c(n1)S(=O)(=O)N(CCCN1CCN(c3cccc(Cl)c3)CC1)C(C(=O)c1ccc(Br)cc1)=C2O | 42.3 µM (inactive) | 26.4 µM (inactive) | 19.1 µM (inactive) | 16.7 µM | 27.2 µM (inactive) | 6.81 µM (inactive) | 10.6 µM (inactive) | 24.7 µM (inactive) | – | 33.5 µM (inactive) | 8.91 µM (inactive) | 20.5 µM (inactive) | 11.4 µM (inactive) | 23.8 µM (inactive) | – | 24.5 µM (inactive) | 15.4 µM (inactive) | 29.5 µM (inactive) | 27.8 µM (inactive) | 34.9 µM (inactive) |
| CCOC(=O)c1ccc(Nc2nc3cc(C(F)(F)F)ccc3nc2-c2ccccc2)cc1 | > 100 µM (inactive) | > 100 µM (inactive) | 67.6 µM (inactive) | > 100 µM | 36.1 µM (inactive) | > 100 µM (inactive) | > 10 µM (inactive) | > 100 µM (inactive) | > 100 µM (inactive) | 40.3 µM (inactive) | 45.7 µM (inactive) | 37.6 µM (inactive) | – | 31.3 µM (inactive) | > 100 µM (inactive) | > 100 µM (inactive) | 65 µM (inactive) | – | > 100 µM (inactive) | – |
| C#CC(O)/C=C/C(O)CCCC(O)CC#CC(O)C#CCCCCC(O)/C=C/CCCCCC(=O)CCCCCCCCCCCCCC(O)C(O)C#CC(=O)O (stereo not drawn) | – | > 25 µM (inactive) | > 25 µM (inactive) | > 25 µM | 4.13 µM (inactive) | 4.6 µM (inactive) | 12.8 µM (inactive) | > 25 µM (inactive) | > 25 µM (inactive) | > 25 µM (inactive) | > 25 µM (inactive) | 4.88 µM (inactive) | 15.8 µM (inactive) | > 25 µM (inactive) | > 25 µM (inactive) | > 25 µM (inactive) | > 25 µM (inactive) | > 25 µM (inactive) | > 25 µM (inactive) | > 25 µM (inactive) |
| CCC(CON(C)c1ccccc1)(SC)SC | > 100 µM (inactive) | 82.6 µM (inactive) | > 100 µM (inactive) | > 100 µM | > 100 µM (inactive) | > 100 µM (inactive) | > 100 µM (inactive) | 13.5 µM (inactive) | > 100 µM (inactive) | > 100 µM (inactive) | > 100 µM (inactive) | > 100 µM (inactive) | > 100 µM (inactive) | > 100 µM (inactive) | > 100 µM (inactive) | > 100 µM (inactive) | > 100 µM (inactive) | > 100 µM (inactive) | – | – |
| Nc1cc(N2CCCC2)nc(=O)n1Cc1ccccc1 | > 100 µM (inactive) | > 100 µM (inactive) | > 100 µM (inactive) | > 100 µM | > 100 µM (inactive) | > 100 µM (inactive) | > 100 µM (inactive) | > 100 µM (inactive) | > 100 µM (inactive) | > 100 µM (inactive) | > 100 µM (inactive) | > 100 µM (inactive) | > 100 µM (inactive) | > 100 µM (inactive) | > 100 µM (inactive) | 39.5 µM (inactive) | > 100 µM (inactive) | – | > 100 µM (inactive) | – |
| OCC1CCCCCCCCCCC12SCCCS2 (stereo not drawn) | > 100 µM (inactive) | > 100 µM (inactive) | > 100 µM (inactive) | > 100 µM | > 100 µM (inactive) | > 100 µM (inactive) | > 100 µM (inactive) | > 100 µM (inactive) | > 100 µM (inactive) | > 100 µM (inactive) | > 100 µM (inactive) | > 100 µM (inactive) | > 100 µM (inactive) | – | > 100 µM (inactive) | > 100 µM (inactive) | > 100 µM (inactive) | > 100 µM (inactive) | 48.2 µM (inactive) | – |
| CNC(=O)N1CN(c2ccccc2)C2(CCN(CCCC3(c4ccc(F)cc4)OCCO3)CC2)C1=O | – | > 100 µM (inactive) | > 100 µM (inactive) | > 100 µM | > 100 µM (inactive) | > 100 µM (inactive) | > 100 µM (inactive) | > 100 µM (inactive) | > 100 µM (inactive) | > 100 µM (inactive) | > 100 µM (inactive) | > 100 µM (inactive) | > 100 µM (inactive) | – | > 100 µM (inactive) | > 100 µM (inactive) | > 100 µM (inactive) | > 100 µM (inactive) | > 100 µM (inactive) | > 100 µM (inactive) |
| CC(=O)Nc1ccc2nc(-c3cccc(Cl)c3)cc(O)c2c1 | 15.4 µM (inactive) | – | – | – | 13.4 µM (inactive) | – | 5.35 µM (inactive) | 3.18 µM (inactive) | – | 35.6 µM (inactive) | > 10 µM (inactive) | 3.1 µM (inactive) | – | 36.9 µM (inactive) | 66.1 µM (inactive) | – | 4.93 µM (inactive) | 0.787 µM (active) | – | – |
| COc1ccc(N2C(=O)C(=O)C3(CCCCC3)C2=O)c(OC)c1OC | 34 µM (inactive) | > 100 µM (inactive) | > 100 µM (inactive) | > 100 µM | – | > 100 µM (inactive) | > 100 µM (inactive) | > 100 µM (inactive) | > 100 µM (inactive) | > 100 µM (inactive) | – | > 100 µM (inactive) | > 100 µM (inactive) | > 100 µM (inactive) | > 100 µM (inactive) | > 100 µM (inactive) | > 100 µM (inactive) | > 100 µM (inactive) | – | – |
| CCOC(=O)c1nc2ccc(C(F)(F)F)cc2nc1NCc1ccc(OC)c(OC)c1 | 51.3 µM (inactive) | – | 39.2 µM (inactive) | 69 µM | 71.1 µM (inactive) | 36.1 µM (inactive) | 34.9 µM (inactive) | 97.7 µM (inactive) | 63.5 µM (inactive) | 72.8 µM (inactive) | 35.6 µM (inactive) | 30.6 µM (inactive) | 73.5 µM (inactive) | 80.4 µM (inactive) | 86.1 µM (inactive) | 83.9 µM (inactive) | 37.8 µM (inactive) | > 100 µM (inactive) | 49.5 µM (inactive) | 58.2 µM (inactive) |
